According to US5650430A, “Radicicol derivatives, their preparation and their anti-tumor activity” (Sankyo Company, Limited, priority 1990, dated 1997):
Like-named read-outs stand apart in the source and are kept apart here.

Assays:
mouse fibrosarcoma M5076 = test: anti-tumor effect in mice inoculated subcutaneously with M5076 fibrosarcoma; assay type: in vivo, mouse (female BDF1); settings: M5076 s.c. in mice
Protocol: The test animals used were female mice, 8 weeks old, of the BDF1 strain, weighing 20-25 g. The mice were purchased from Charles River Japan Inc., Kanagawa, Japan. The mice were divided into experimental groups, each group containing 6 mice, and all mice within each group were treated identically. Each mouse was inoculated subcutaneouly with 1×10^6viable cells (the number of cells was measured by a dye exclusion method under microscopy) of the mouse fibrosarcoma M5076.
The test compounds (80 mg) listed in the following Table, except radicicol, were dissolved in 0.2 ml of N,N-dimethylacetamide (DMA) and to the solution was added 0.2 ml of 40° C.-warmed HCO60 (polyoxyethylene hydrogenated caster oil 60). Immediately thereafter 3.6 ml of 40° C.-warmed physiological saline was added to form a colloidal solution or a suspension. The final concentration of DMA and HCO60 was 5% v/v, each. Radicicol was dissolved in […] of DMA and the solution was dispersed slowly into 3.75 ml of 10% Emulphor(trade mark)-physiological saline stirred well with a stirring rod. The final concentration of DMA was 6.25%. The solution was administered intravenously (in the case of a suspension it was administered intraperitoneally) on the first, fifth and ninth days following inoculation of the fibrosarcoma cells. The period for which the mice survived and the % inhibition of tumor growth were determined. A control group was treated identically, except that no active compound was administered.
The anti-tumor effect is shown in the following Table as the increase in life span [ILS (%)] and the growth inhibition [GI (%)], calculated from the following equations [R. I. Geran et al., Cancer Chemother. Rept., 3 (1972)]:
Dt=median survival time (days) of mice in the treated group; and
Dc=median survival time (days) of mice in the control group.
In this experiment, Dc was 40-47 days.
TDt=average value of tumor sizes on the fourteenth day in the treated group; and
TDc=average value of tumor sizes on the fourteenth day in the control group tumor size=(tumor length+tumor width )/2.

[1] = tested on: tumor cells of the mouse mastocytoma P-815; settings: cited from earlier work
fungi (anti-fungal) = settings: in words; cited from earlier work
[2] = in words; cited from earlier work
various types of tumor = test: anti-tumor activity against various types of tumor in vivo
Text: It is believed that the relative inactivity in vivo compared to the good activity in vitro may be a result of an instability of the compound to a component of the mammalian metabolism.

[3] = Mus musculus, 336 h, 200 mg/kg iv on days 1, 5 and 9, tumor size on day 14, read-out: growth Inhibition (%)
[4] = Mus musculus, 200 mg/kg iv on days 1, 5 and 9, median survival vs control (Dc 40-47 days), read-out: ILS (%) (increase in life span)

| Structure (SMILES) | inhibition in vivo at 200 mg/kg (mouse fibrosarcoma M5076; [3]) | ILS at 200 mg/kg (mouse fibrosarcoma M5076; [4]) | also measured |
| --- | --- | --- | --- |
| CCCCCCCC/C=C\CCCCCCCC(=O)Oc1cc(OC(=O)CCCCCCC/C=C\CCCCCCCC)c2c(c1Cl)CC(=O)/C=C/C=C\[C@H]1O[C@@H]1C[C@@H](C)OC2=O [72(cis), 14,16-dioleoylradicicol] | 80% | 4% | – |
| CCCCCCCC/C=C/CCCCCCCC(=O)Oc1cc(OC(=O)CCCCCCC/C=C/CCCCCCCC)c2c(c1Cl)CC(=O)/C=C/C=C\[C@H]1O[C@@H]1C[C@@H](C)OC2=O [72(trans), 14,16-dielaidoylradicicol] | 86% | 9% | – |
| CCCCCCCCCCCC(=O)Oc1cc(OC(=O)CCCCCCCCCCC)c2c(c1Cl)CC(=O)/C=C/C=C\[C@H]1O[C@@H]1C[C@@H](C)OC2=O [Compound 17, 14,16-dilauroylradicicol] | 89% | 24% | – |
| CCCCCCCCCCCCC(=O)Oc1cc(OC(=O)CCCCCCCCCCCC)c2c(c1Cl)CC(=O)/C=C/C=C\[C@H]1O[C@@H]1C[C@@H](C)OC2=O [Compound 19, 14,16-ditridecanoylradicicol] | 89% | 9% | – |
| CCCCCCCCCCCCCC(=O)Oc1cc(OC(=O)CCCCCCCCCCCCC)c2c(c1Cl)CC(=O)/C=C/C=C\[C@H]1O[C@@H]1C[C@@H](C)OC2=O [Compound 21, 14,16-dimyristoylradicicol] | 91% | 35% | – |
| CCCCCCCCCCCCCCC(=O)Oc1cc(OC(=O)CCCCCCCCCCCCCC)c2c(c1Cl)CC(=O)/C=C/C=C\[C@H]1O[C@@H]1C[C@@H](C)OC2=O [Compound 23, 14,16-dipentadecanoylradicicol] | 95% | 35% | – |
| CCCCCCCCCCCCCCCC(=O)Oc1cc(OC(=O)CCCCCCCCCCCCCCC)c2c(c1Cl)CC(=O)/C=C/C=C\[C@H]1O[C@@H]1C[C@@H](C)OC2=O [Compound 25, 14,16-dipalmitoylradicicol] | 100% | 43% | – |
| CCCCCCCCCCCCCCCCC(=O)Oc1cc(OC(=O)CCCCCCCCCCCCCCCC)c2c(c1Cl)CC(=O)/C=C/C=C\[C@H]1O[C@@H]1C[C@@H](C)OC2=O [Compound 28, 14,16-diheptadecanoylradicicol] | 95% | 27% | – |
| CCCCCCCCCCCCCCCCCC(=O)Oc1cc(OC(=O)CCCCCCCCCCCCCCCCC)c2c(c1Cl)CC(=O)/C=C/C=C\[C@H]1O[C@@H]1C[C@@H](C)OC2=O [Compound 31, 14,16-distearoylradicicol] | – | – | inhibition in vivo at 200 mg/kg (mouse fibrosarcoma M5076; Mus musculus, 336 h, 200 mg/kg ip on days 1, 5 and 9, tumor size on day 14, read-out: growth Inhibition (%)): 66%; ILS at 200 mg/kg (mouse fibrosarcoma M5076; Mus musculus, 200 mg/kg ip on days 1, 5 and 9, median survival vs control (Dc 40-47 days), read-out: ILS (%) (increase in life span)): -4% |
| CCCCCC/C=C\CCCCCCCC(=O)Oc1cc(OC(=O)CCCCCCC/C=C\CCCCCC)c2c(c1Cl)CC(=O)/C=C/C=C\[C@H]1O[C@@H]1C[C@@H](C)OC2=O [Compound 70, 14,16-dipalmitoleoylradicicol] | 65% | 31% | – |
| CC/C=C\C/C=C\C/C=C\CCCCCCCC(=O)Oc1cc(OC(=O)CCCCCCC/C=C\C/C=C\C/C=C\CC)c2c(c1Cl)CC(=O)/C=C/C=C\[C@H]1O[C@@H]1C[C@@H](C)OC2=O [Compound 76, 14,16-dilinolenoylradicicol] | – | – | ILS (%) (increase in life span) (mouse fibrosarcoma M5076; 200 mg/kg iv on days 1, 5 and 9, median survival vs control (Dc 40-47 days)): 11%; growth Inhibition (%) (mouse fibrosarcoma M5076; 200 mg/kg iv on days 1, 5 and 9, tumor size on day 14): 74% |
| C[C@@H]1C[C@H]2O[C@@H]2/C=C\C=C\C(=O)Cc2c(Cl)c(O)cc(O)c2C(=O)O1 [radicicol] | – | – | inhibitory effect in vitro on the growth of tumor cells [1]: strong inhibitory effect; antibiotic activity (nature of) (fungi (anti-fungal)): strictly anti-fungal; inhibition in vivo at 150 mg/kg (mouse fibrosarcoma M5076; Mus musculus, 336 h, 150 mg/kg iv on days 1, 5 and 9, tumor size on day 14, read-out: growth Inhibition (%)): 5%; ILS at 150 mg/kg (mouse fibrosarcoma M5076; Mus musculus, 150 mg/kg iv on days 1, 5 and 9, median survival vs control (Dc 40-47 days), read-out: ILS (%) (increase in life span)): -29%; effect on the central nervous system [2]: without having any effect on the central nervous system; tranquilizing activity [2]: relatively strong tranquilizing activity; anti-tumor activity in vivo (various types of tumor): little anti-tumor activity |
